Assay results reported in PMC5742583, “A Functional Analysis on the Interspecies Interaction between Mouse LFA-1 and Human Intercellular Adhesion Molecule-1 at the Cell Level” (Frontiers in Immunology, 2017).
Where no end group is shown, it is not given here.

Columns and labels:
[1] = test system: mouse B cells (ICAM-1/LFA-1 interaction); experiment: Homotypic B cell aggregation assay; format: cell-based; conditions: splenocytes activated with PHA and ionomycin, overnight 37°C
Procedure: To obtain these cells, mice were sacrificed by cervical dislocation, the spleens were removed, and splenocytes were isolated and resuspended in RPMI 10% FBS at a final concentration of 10^6 cells/ml. Cells were treated with 10 µg/ml PHA and 1 µg/ml ionomycin to activate LFA-1 and incubated at 37°C 5% CO2 overnight in flat bottom 96-well plates (10^5 cells) in the presence of peptides from LFA-1 and c-Myc (control) 250 µM, D1D2, D1D2Fc, and human IgG1 10 µg, EGTA 1 mM and lovastatin 100 µM. A qualitative aggregation assay was carried out as described ([36], [41]) with a slight modification. Briefly, positive control stimulated cell samples were arbitrarily assigned a clumping index of 10 and lovastatin samples an index of 1. Test samples were ranked from 1 to 10 based upon degree of clumping relative to stimulated and lovastatin-treated samples. Results were verified by a blind independent rating performed by a second observer.
Fresh mouse B cells were obtained from splenocytes and stimulated with PHA and ionomycin to induce homotypic adhesion. The results were quantified by establishing a clumping index that represents the degree of cell aggregation, which reflects the inhibition efficiency (Figure 3B). Cell aggregation was ranked by a clumping index from 1 to 10 based on the degree of aggregation in comparison with the stimulated cells (positive control, clumping index = 10).
Figure 3 Effect of human (ICAM-1) on the aggregation of mouse spleen cells. (A) Splenocytes isolated from mice were non treated (a) or activated with PHA (b–i) as described in Section “Experimental Procedures” and further incubated overnight with (b) medium; (c) IgG1; (d) c-Myc peptide; (e) EGTA; (f) lovastatin; (g) D1D2; (h) D1D2Fc; (i) mouse LFA-1 peptide CD11a235–259. Images were taken with an optical microscope (original magnification, 10×). Representative images from two independent experiments with similar results are shown. (B) The graph represents the rate of agglutination depending on the inhibitory effect on ICAM-1/LFA-1 interaction. Cells stimulated with PHA and ionomycin, which served as a positive control, were arbitrarily assigned agglutination index 10, which represents a percentage of aggregation between 90 and 100%. Homotypic aggregation was classified from 1 to 10 depending on the degree of aggregation relative to cells stimulated. The result was verified by a second independent observer. Values are presented as mean ± SEM of two separate experiments performed by duplicate. Statistical analysis was performed using two-way analysis of variance with Bonferroni’s posttest comparing with c-Myc peptide control. *p < 0.05; ***p < 0.001.

[2] = test system: gp33-pulsed EL4 cells killed by mouse Tc cells (ICAM-1/LFA-1); experiment: CD8+ T cell-mediated cytotoxicity on EL4; format: cell-based; conditions: preincubation 45 min 37°C, effector:target 10:1, 4 h
[3] = test system: human monocytes; experiment: Human monocyte adhesion to plastic (MTT); format: cell-based; conditions: lovastatin 100 µM, 37°C overnight
Procedure: (§1) Monocytes were isolated from human peripheral blood mononuclear cells (PBMCs), obtained from healthy donors (Blood and Tissue Bank of Aragon; approved by the CEICA, number: C.I.PI11/006) by density gradient centrifugation using Ficoll-Paque (GE healthcare). PBMCs were resuspended at a concentration of 2.5 × 10^6 cells/ml in RPMI medium supplemented with 1% heat-inactivated human AB serum (Sigma). Cells were cultured in a Petri dish for 2 h at 37°C 5% CO2. […]
(§2) Freshly isolated monocytes or differentiated macrophages were washed twice with PBS and incubated with trypsin (PAN Biotech) for 30 min at 37°C 5% CO2. […] Next day, every well was washed twice with PBS, complete RPMI medium was added and the number or adherent remaining cells was quantified by a MTT colorimetric test ([38]). […]
(§3) Figure 6 LFA-1 is involved in human macrophage adhesion. […] (B) Macrophage phenotype was analyzed by flow cytometry testing the expression of HL-DR, CD14, CD54, and CD11a. […] Subsequently, every well was washed twice with PBS to remove non-adherent cells and quantification of cell adhesion was carried out by MTT as described in Section “Experimental Procedures.” Values are presented as mean ± SEM of three independent experiments performed by duplicate. […]

[4] = test system: human macrophages; experiment: Human macrophage adhesion to plastic (MTT); format: cell-based; conditions: lovastatin 100 µM, 37°C overnight
Procedure: as §1, §2, §3

[5] = test system: mouse macrophages; experiment: Mouse macrophage adhesion to uncoated plastic (MTT); format: cell-based; conditions: lovastatin 100 µM, 37°C overnight
Procedure: Mouse macrophages were differentiated from mouse bone marrow as previously described ([37]). Briefly, bone marrow cells isolated from mouse femur were cultured in DMEM 10% FBS, 5% horse serum, and 30% supernatant of L929 cell culture as a source of M-CSF at a density of 10^6/cm^2 for 7–8 days. Macrophage differentiation was analyzed in the same way as human macrophages but using CD11b-APC and CD11c-PE (BD) antibodies.
Freshly isolated monocytes or differentiated macrophages were washed twice with PBS and incubated with trypsin (PAN Biotech) for 30 min at 37°C 5% CO2. After that, cells were scraped gently from the plate and resuspended at a final concentration of 10^6 cells/ml in complete RPMI medium. Subsequently, 10^5 macrophages and 5 × 10^5 monocytes were added to each well and incubated with several concentrations of human D1D2, D1D2Fc, D1D5Fc, mouse D1D5Fc, control human IgG1 20 µg or lovastatin 100 µM at 37°C 5% CO2 overnight. Next day, every well was washed twice with PBS, complete RPMI medium was added and the number or adherent remaining cells was quantified by a MTT colorimetric test ([38]). In some experiments, plates previously coated with human and mouse D1D5Fc were used. […]
Figure 7 Human intercellular adhesion molecule (ICAM)-1 blocks LFA-1-mediated mouse macrophage cell adhesion. […] (B) Macrophage phenotype was analyzed by flow cytometry testing the expression CD11b and CD11c. […]

[6] = test system: ICAM-1/LFA-1 interaction; conditions: cited from earlier work
Procedure: Human and mouse LFA-1-derived peptides (human: CD11a237–261; mouse: CD11a235–259) were purchased from GenScript (Piscataway, USA) without any modification. […] Besides, incubation cells with a mouse antiCD1 ...

[7] = test system: Mac-1; conditions: cited from earlier work
Excerpt: (§4) In contrast, cell aggregates were clearly visible in cultures after stimulation (Figure 3A, b). […] Macrophage phenotype was confirmed by testing surface antigens by flow cytometry. Monocyte-derived macrophages expressed higher levels of HLA-DR and CD14 than undifferentiated monocytes ([51]). In addition, expression of CD54 (ICAM-1) was diminished in comparison with freshly isolated monocytes (Figure 6B). […] As shown ...

[8] = test system: VLA-4; conditions: cited from earlier work
Excerpt: as §4

[9] = molecular target: T1, D1D2Fc (Homo sapiens, UniProt P05362); experiment: Isothermal titration calorimetry (ITC); conditions: VP-ITC, D1D2Fc 12 µM titrated with peptide 150 µM, PBS, 25°C, 1:n interaction model, single type of binding sites, nonlinear regression, read-out: dissociation constant (KD)
T1 construct: The synthetic first two domains of ICAM-1 alone (D1D2) or linked with human IgG1 Fc region (D1D2Fc) were expressed in Escherichia coli; made in house; host or cells: Escherichia coli
Procedure: The ability of the human chimera D1D2Fc to interact with a peptide derived from its natural ligand LFA-1 in mouse was analyzed by ITC on a VP-ITC calorimeter (MicroCal) at 25°C as indicated previously ([34]). Briefly, 2.2 ml of a 12-µM solution of D1D2Fc and 0.5 ml of a 150-µM solution of peptide were prepared in PBS and degassed. Each assay consisted of a series of 28 injections of peptide solution of 10 µl each (with a 4-µl first injection) at 400 s intervals under constant stirring (459 rpm). The thermal power required to keep the cell at a constant temperature is measured, so that it provides the heat associated with each ligand injection after integrating the signal over time. The thermodynamic parameters of protein–peptide interactions (affinity, enthalpy, and entropy changes) as well as the stoichiometry were estimated by using nonlinear regression analysis. Data were analyzed using the software developed and implemented in Origin 7.0 (OriginLab).
Figure 1 Interaction of LFA-1 peptide with D1D2Fc by isothermal titration calorimetry. Purified D1D2Fc (12 µM) was titrated with a peptide derived from the binding site of mouse LFA-1 (CD11a235–259; 150 µM). The assay was performed in PBS buffer at 25°C. The nonlinear regression analysis done as described in Section “Experimental Procedures” provided a dissociation constant of 70 nM.

[10] = test system: K562 cells killed by human NK cells (ICAM-1/LFA-1); experiment: NK cell-mediated cytotoxicity on K562; format: cell-based; conditions: peptide 250 µM, preincubation 45 min 37°C; effector:target 3:1, 4 h; annexin-V/7-AAD by FACS; vs c-Myc control; two experiments by duplicate
Procedure: The effect of human and mouse peptides derived from LFA-1 on ICAM-1/LFA-1 dependent cell–cell contact was analyzed by performing a cell cytotoxicity assay using human primary NK cells and the NK cell sensitive human leukemia K562. Primary activated human NK cells were generated by culturing PBMCs with mitomycin C inactivated R69 cells for 5 days and enriched by MACS using anti-CD56 antibodies as previously described ([39]). Cell cytotoxicity induced by NK cells on K562 was analyzed by flow cytometry as previously described ([39]). Briefly, K562 cells were preincubated with medium alone, in the presence of 250 µM of human and mouse peptides from LFA-1 or D1D2 (15 µg) for 45 min at 37°C. Then, NK cells were added at 3:1 effector:target cell ratio and incubated for 4 h at 37°C, 5% CO2. Subsequently, phosphatidylserine exposure and 7-AAD uptake were analyzed by FACS using the annexin-V/7-AAD kit from Immunostep. As a control, the cells were incubated alone with the inhibitors to evaluate their possible toxicity, which was not significant in any case.
Figure 4 Inhibition of natural killer (NK) cell-mediated cytotoxicity by human intercellular adhesion molecule-1. […] Cell death was analyzed by measuring translocation of PS by flow cytometry in the negative population for CFSE as described in experimental procedures. […]

T1 sequence (P05362 with tags, fused parts or gaps limits assumed): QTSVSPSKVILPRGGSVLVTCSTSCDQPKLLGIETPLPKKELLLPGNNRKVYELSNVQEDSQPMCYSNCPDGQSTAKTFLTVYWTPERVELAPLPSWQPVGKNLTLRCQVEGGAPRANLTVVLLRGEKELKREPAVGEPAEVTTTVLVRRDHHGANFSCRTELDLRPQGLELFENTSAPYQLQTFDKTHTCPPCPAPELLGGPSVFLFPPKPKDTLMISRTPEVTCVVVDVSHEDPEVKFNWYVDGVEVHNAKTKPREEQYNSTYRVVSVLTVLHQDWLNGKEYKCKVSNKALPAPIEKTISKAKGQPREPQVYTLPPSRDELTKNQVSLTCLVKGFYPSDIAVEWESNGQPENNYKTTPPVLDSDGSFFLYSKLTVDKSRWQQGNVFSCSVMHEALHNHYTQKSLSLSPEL

Compound | inhibition of B cell aggregation ([1]; lovastatin 100 µM, assigned clumping index 1) | inhibition of Tc cell-mediated cell death of EL4 ([2]; lovastatin 100 µM) | inhibition of adhesion of human monocytes [3] | inhibition of adhesion of human macrophages [4] | inhibition of adhesion of mouse macrophages [5] | specific block of ICAM-1/LFA-1 interaction ([6]; ref [42], [43]) | effect on Mac-1 ([7]; ref [42], [43]) | inhibition of Mac-1 ([7]; ref [43]) | effect on VLA-4 ([8]; ref [42], [43]) | inhibition of VLA-4 ([8]; ref [43]) | Kd [9] | inhibition of B cell aggregation ([1]; peptide 250 µM, clumping index 1-10, two experiments by duplicate) | inhibition of NK cell-mediated cell death of K562 [10] | inhibition of Tc cell-mediated cell death of EL4 ([2]; peptide 250 µM, three experiments by duplicate) | ability to block ICAM-1/LFA-1 interaction ([6]; ref [36])
CC[C@H](C)C(=O)O[C@H]1C[C@@H](C)C=C2C=C[C@H](C)[C@H](CC[C@@H]3C[C@@H](O)CC(=O)O3)[C@H]21 [lovastatin, reference compound] | inhibit completely the aggregation | inhibited cell death | block completely cell adhesion | block completely cell adhesion | completely inhibit the adhesion | specifically block ICAM-1/LFA-1 interaction | without affecting | not inhibited | without affecting | not inhibited | – | – | – | – | –
ITDGEASDKGNISAAHDITRYIIGI [CD11a235–259] | – | – | – | – | – | – | – | – | – | – | 70 nM | completely blocked B cell aggregation | significantly inhibit cell death | able to inhibit cytotoxicity | ability to block ICAM-1/LFA-1 interaction
